Measured values: ChEMBL document CHEMBL1201862, “PubChem BioAssay data set” (2004)
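Values below derive from 48-hour exposures of cells grown in 96-well plates, with endpoints linearly interpolated between the two concentrations bracketing the appropriate inhibition level. GI50 marks 50% less growth.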 Calls of active or inactive are those of the source. No stated cut-off is given here; in the data, active = GI50 up to about 1.1 µM and inactive = higher.

How the values were obtained:
Experiment in all cases: NCI-60 cell line screen, 48 h
[1] = tested on: HCT-116
[2] = tested on: OVCAR-4
[3] = tested on: M14
[4] = tested on: A549
[5] = tested on: SK-MEL-5
[6] = tested on: ACHN
[7] = tested on: OVCAR-3
[8] = tested on: 786-0
[9] = tested on: TK-10
[10] = tested on: SNB-19
[11] = tested on: U-251
[12] = tested on: COLO 205
[13] = tested on: RPMI-8226
[14] = tested on: SNB-78
[15] = tested on: HOP-92
[16] = tested on: BT-549
[17] = tested on: MDA-MB-231
[18] = tested on: MDA-N
[19] = tested on: Hs-578T
[20] = tested on: T47D

Measured: GI50

CCN(CC)CC1CCCCCCCCCCC1=O (configuration not stated)
inactive: [1] > 100 µM | [2] > 100 µM | [3] > 100 µM | [4] > 100 µM | [5] > 100 µM | [6] > 100 µM | [7] > 100 µM | [8] > 100 µM | [9] > 100 µM | [10] > 100 µM | [11] > 100 µM | [12] > 100 µM | [13] > 100 µM | [14] > 100 µM

FC(F)(F)c1ccc2c(c1)N(CCCNCCN1CCOCC1)c1ccccc1S2
inactive: [1] 3.17 µM | [3] 1.95 µM | [4] 14.4 µM | [5] 3.8 µM | [6] 12.3 µM | [7] 11.4 µM | [15] 3.4 µM | [9] 12.7 µM | [10] 16.1 µM | [11] 11.6 µM | [12] 2.37 µM | [13] 7.19 µM | [14] 11.6 µM

O=c1[nH]c(C2CCCCC2)nc2ccc(Cl)cc12
inactive: [1] > 100 µM | [4] > 100 µM | [5] > 100 µM | [6] > 100 µM | [7] > 100 µM | [8] > 100 µM | [15] > 100 µM | [9] > 100 µM | [10] > 100 µM | [11] > 100 µM | [12] > 100 µM | [13] > 100 µM | [14] > 100 µM

Nc1nc(O)c2ncn(C3OC(CO)C(O)C3O)c2n1 (configuration not stated)
inactive: [1] 68.1 µM | [2] 15.9 µM | [5] 53.6 µM | [7] 23.2 µM | [11] 16.1 µM | [12] 57 µM | [14] 95.3 µM

O=S(OC12CC3CC(CC(C3)C1)C2)c1cc(Cl)cc(Cl)c1OCc1ccccc1 (configuration not stated)
inactive: [1] > 100 µM | [2] > 100 µM | [3] > 100 µM | [6] > 100 µM | [7] > 100 µM | [9] > 100 µM | [10] > 100 µM | [11] > 100 µM | [14] > 100 µM

O=C1CC2C(=O)N(Cc3ccccc3)C1C(S(=O)(=O)c1ccccc1)C2S(=O)(=O)c1ccccc1 (configuration not stated)
inactive: [1] 4.68 µM | [2] 2.08 µM | [3] 1.92 µM | [4] 19.1 µM | [5] 15.7 µM | [6] 1.67 µM | [7] 1.78 µM | [8] 2.93 µM | [15] 2.15 µM | [9] 1.78 µM | [11] 2.92 µM | [12] 1.69 µM | [13] 3.08 µM | [14] 11.2 µM

C/C(=N/NC(=O)CC(=O)N(C(=O)c1ccccc1Cl)c1ccc(C)cc1)c1cc2ccccc2oc1=O
inactive: [1] > 100 µM | [2] > 100 µM | [3] 65.3 µM | [4] > 100 µM | [5] 65.3 µM | [6] > 100 µM | [7] > 100 µM | [8] > 100 µM | [15] 21.5 µM | [9] 95.5 µM | [10] > 100 µM | [11] > 100 µM | [12] > 100 µM | [14] > 100 µM

Cc1cn(C2CC(N(O)Cc3ccccc3)C(CO)O2)c(=O)[nH]c1=O (configuration not stated)
inactive: [1] > 100 µM | [2] > 100 µM | [3] > 100 µM | [4] > 100 µM | [5] > 100 µM | [6] > 100 µM | [7] > 100 µM | [8] 5.24 µM | [9] > 100 µM | [10] > 100 µM | [11] > 100 µM | [12] > 100 µM | [13] > 100 µM | [14] > 100 µM

CCOC(=O)c1c(N2CCCC2)[nH]c(=O)c(C(c2cccs2)c2c(O)c(C(=O)OCC)c(N3CCCC3)[nH]c2=O)c1O
inactive: [1] > 100 µM | [2] > 100 µM | [16] > 100 µM | [3] > 100 µM | [17] > 100 µM | [4] > 100 µM | [5] > 100 µM | [6] > 100 µM | [7] > 100 µM | [8] > 100 µM | [15] > 100 µM | [18] > 100 µM | [19] > 100 µM | [9] > 100 µM | [10] > 100 µM | [11] > 100 µM | [12] > 100 µM | [13] 54.6 µM | [20] > 100 µM

Cc1cc(O)c2c(c1)C(=O)c1c(c(O)cc(O)c1-c1c(O)cc(O)c3c1C(=O)c1cc(C)cc(O)c1C3=O)C2=O [SKYRIN]
inactive: [1] 8.99 µM | [2] 10.9 µM | [4] 8.87 µM | [5] 9.44 µM | [7] 6.31 µM | [15] 13.1 µM | [10] 2.5 µM | [11] 8.36 µM | [12] 24.8 µM | [13] 5.93 µM | [14] 26.9 µM

COc1ccc(OC)c2sc(N3C(=O)/C(=C/c4ccc(N(C)C)cc4)N=C3c3ccccc3)nc12
inactive: [1] 34.8 µM | [2] > 100 µM | [16] 97.1 µM | [3] 99.3 µM | [17] > 100 µM | [4] 83.6 µM | [5] 39.2 µM | [6] 50.5 µM | [7] 58.2 µM | [8] 92.3 µM | [15] > 100 µM | [18] 22.2 µM | [19] 91 µM | [9] > 100 µM | [10] > 100 µM | [11] 44.1 µM | [12] > 100 µM | [13] 11 µM | [20] 38.5 µM

CCOC(=O)C1Nc2ccc([N+](=O)[O-])cc2[C@H]2OCC[C@@H]12 (some centres not stated)
inactive: [1] > 100 µM | [2] > 100 µM | [3] > 100 µM | [4] > 100 µM | [5] > 100 µM | [6] > 100 µM | [7] > 100 µM | [8] > 100 µM | [9] > 100 µM | [10] > 100 µM | [11] > 100 µM | [12] > 100 µM | [14] > 100 µM

C=COC(=O)N1C2CCCC(Cl)(C(C)=O)C1CC2 (configuration not stated)
inactive: [1] > 100 µM | [2] > 100 µM | [16] > 100 µM | [3] > 100 µM | [17] > 100 µM | [4] > 100 µM | [5] > 100 µM | [6] > 100 µM | [7] > 100 µM | [8] > 100 µM | [15] > 100 µM | [18] 79.1 µM | [19] > 100 µM | [9] > 100 µM | [10] > 100 µM | [11] > 100 µM | [12] > 100 µM | [13] > 100 µM | [20] > 100 µM

COc1ccc(/C(Cl)=C(\C=O)c2ccc(Cl)c(Cl)c2)cc1
inactive: [1] 3.83 µM | [3] 13.7 µM | [5] 13 µM | [6] 7.26 µM | [7] 17.9 µM | [15] 6.07 µM | [9] 18 µM | [10] 16.2 µM | [11] 5.66 µM | [12] 18.8 µM | [13] 2.56 µM | [14] 11 µM

COc1cc2c(cc1OC)C(=O)/C(=C/c1ccc(N(C)C)cc1)CC2
inactive: [1] > 10 µM | [2] > 10 µM | [16] > 10 µM | [3] > 10 µM | [17] > 10 µM | [4] > 10 µM | [5] > 10 µM | [6] > 10 µM | [7] > 10 µM | [8] > 10 µM | [15] > 10 µM | [18] > 10 µM | [19] > 10 µM | [9] > 10 µM | [10] > 10 µM | [11] > 10 µM | [12] > 10 µM | [13] > 10 µM | [20] > 10 µM

O=C(O)CSC(CC1(c2ccc(Cl)cc2)NC(=O)CS1)c1ccc(Cl)cc1 (configuration not stated)
inactive: [1] > 100 µM | [2] > 100 µM | [16] > 100 µM | [3] > 100 µM | [17] > 100 µM | [4] > 100 µM | [5] > 100 µM | [6] > 100 µM | [7] 45.6 µM | [8] > 100 µM | [15] 22.8 µM | [18] > 100 µM | [19] > 100 µM | [9] > 100 µM | [10] > 100 µM | [11] 89.7 µM | [12] > 100 µM | [13] > 100 µM | [20] 80.9 µM

O=C1/C(=c2\c3ccccc3n3c(=O)c4ccccc4nc23)Nc2ccccc21 [CANDIDINE]
inactive: [1] > 100 µM | [2] > 100 µM | [16] > 100 µM | [3] > 38.7 µM | [17] > 70.3 µM | [4] > 84.5 µM | [5] > 53.8 µM | [6] > 100 µM | [7] 45.9 µM | [8] 58.7 µM | [15] > 75.7 µM | [18] 18.6 µM | [19] 29.9 µM | [9] > 100 µM | [10] > 100 µM | [11] > 93.8 µM | [12] 58.5 µM | [13] > 100 µM | [20] > 26.7 µM

Cc1ccc(C(=O)N/N=C2/C(=O)c3c4ccccc4cc4cccc2c34)cc1
inactive: [1] 4.78 µM | [2] 18.2 µM | [16] > 100 µM | [3] 31.4 µM | [17] 37 µM | [4] 32.4 µM | [5] 27.5 µM | [6] 7.82 µM | [7] 22.5 µM | [8] 14.2 µM | [15] 46.6 µM | [18] 37.8 µM | [19] 19.1 µM | [9] 25.2 µM | [10] 27.6 µM | [11] 21 µM | [12] 31.3 µM | [13] 22 µM | [20] 13.4 µM
